Here are results for 60 compounds from ChEMBL document CHEMBL4765411, “Discovery of 2-(2-aminobenzo[d]thiazol-6-yl) benzo[d]oxazol-5-amine derivatives that regulated HPV relevant cellular pathway and prevented cervical cancer from abnormal proliferation” (Eur J Med Chem, 2020).

In assay [1] the test system is HeLa. The assay can be described thus: Antiproliferative activity against human HeLa cells assessed as growth inhibition at 20 uM viability after 72 hrs by SRB assay relative to control. The note with it: read-out: GI. The assay is classed as functional.
Assay [2] deals with HeLa. The assay can be described thus: Antiproliferative activity against human HeLa cells assessed as reduction in cell viability after 72 hrs by SRB assay. In kind it is functional, cell-based. In general terms: Sulforhodamine B stains cellular protein and so reports cell mass.
Assay [3] concerns HeLa. Description: Antiproliferative activity against human HeLa cells assessed as growth inhibition at 1 uM viability after 72 hrs by SRB assay relative to control. The note with it: read-out: GI. The assay is classed as functional.

In the case of `Clc1ccc(-c2nc3ccccc3s2)c(Cl)c1`, in the assay on HeLa [1], the inhibition of growth at 20 µM came out at 0.3%. Take `Nc1ccc2oc(-c3cc(Cl)ccc3Cl)nc2c1`: the inhibition of growth at 20 µM with HeLa [1] is -0.2%. The same measure, in the same setting: next, `Nc1nc2ccc(-c3nc4ccccc4s3)cc2s1`: 47.8%. A word on the IC50: it is the point on the concentration scale where inhibition reaches its midpoint. As to `Nc1ccc2oc(-c3ccc4ncsc4c3)nc2c1`, in the assay on HeLa [2], the IC50 is 7.08 µM. Moreover, the inhibition of growth at 20 µM in the assay with HeLa [1] turned out to be 58%. The inhibition of growth at 1 µM in the assay on HeLa [3] was 20.3%.

With `CCOc1ccc(-c2nc3cc(N)ccc3o2)cc1`, in the assay with HeLa [1], the inhibition of growth at 20 µM stood at 5.8%. As for `Brc1cccc(-c2nc3ccccc3s2)c1`, the inhibition of growth at 20 µM in the assay with HeLa [1] came out at 2.6%. On to `Nc1nc2ccc([N+](=O)[O-])cc2s1`, for which, in the assay on HeLa [1], the inhibition of growth at 20 µM stood at 6%. In the case of `Nc1cc(N)cc(-c2nc3ccccc3[nH]2)c1`, the inhibition of growth at 20 µM in the assay with HeLa [1] came to 34.5%. For the compound `CN(C)c1ccc(-c2nc3cc(N)ccc3o2)cc1`, the inhibition of growth at 20 µM in the assay on HeLa [1] was found to be 8.9%. Same read-out and setting: next, `Nc1ccc2oc(-c3cc(I)ccc3Cl)nc2c1`: 26.5%; `O=C(Nc1nc2ccccc2s1)c1c(Cl)cccc1Cl`: 3.5%; `COc1ccc(-c2nc3cc(N)ccc3o2)cc1`: 42.6%. On the same count and under the same terms, then `O=[N+]([O-])c1ccc(-c2nc3cc([N+](=O)[O-])ccc3o2)cc1`, with 3.8%. For `COc1ccc2sc(N)nc2c1`, the inhibition of growth at 20 µM in the assay with HeLa [1] was found to be 12.2%.

As to `C[n+]1ccccc1-c1nc2ccccc2s1`, in the assay on HeLa [1], the inhibition of growth at 20 µM came out at 1.2%. Regarding `O=[N+]([O-])c1cccc(-c2nc3ccccc3s2)c1`, the inhibition of growth at 20 µM in the assay with HeLa [1] was 4.4%. Take `Nc1ccc2oc(-c3cccc4c(Br)cccc34)nc2c1`: in the assay on HeLa [1], the inhibition of growth at 20 µM worked out at 13.8%.

In the case of `Nc1nc2ccccc2[nH]1`, the inhibition of growth at 20 µM in the assay with HeLa [1] amounted to 1.1%. Take `O=S(=O)(O)c1nc2ccccc2s1`: the inhibition of growth at 20 µM in the assay with HeLa [1] came out at 25%. As for `Nc1cccc(-c2nc3ccccc3[nH]2)c1`, the inhibition of growth at 20 µM in the assay with HeLa [1] was 0%. As for `Nc1nc2ccc(-c3nc4ccccc4o3)cc2s1`, in the assay on HeLa [2], the IC50 is 0.82 µM. Further, the inhibition of growth at 20 µM in the assay with HeLa [1] was found to be 67.2%. Besides, the inhibition of growth at 1 µM with HeLa [3] was 59.6%. Regarding `COc1ccc(-c2nc3cc(N)ccc3o2)cc1OC`, the inhibition of growth at 20 µM in the assay on HeLa [1] is 2.3%.

As to `COc1cccc2sc(N)nc12`, the inhibition of growth at 20 µM in the assay with HeLa [1] was found to be 0.6%. As to `CCNC(=O)Nc1ccc2oc(-c3ccc4nc(N)sc4c3)nc2c1`, the inhibition of growth at 20 µM in the assay on HeLa [1] stood at 6.8%. Further, the inhibition of growth at 1 µM with HeLa [3] is 0.7%. `Nc1ccc(-c2nc3cc(N)ccc3[nH]2)cc1`: the inhibition of growth at 20 µM in the assay with HeLa [1] came to 4%.

Regarding `Nc1nc2c(Br)cccc2s1`, the inhibition of growth at 20 µM with HeLa [1] was 1.7%.

With `Nc1ccc2oc(-c3ccccc3)nc2c1`, the inhibition of growth at 20 µM with HeLa [1] is -2.3%. `Nc1ccc(Br)cc1-c1nc2ccccc2s1`: in the assay on HeLa [1], the inhibition of growth at 20 µM was 0.8%. On to `Clc1ccccc1-c1nc2ccccc2s1`, for which the inhibition of growth at 20 µM in the assay on HeLa [1] came out at 4.9%.

On to `Nc1ccc(-c2nc3cc(N)ccc3o2)cc1`, for which the inhibition of growth at 20 µM in the assay with HeLa [1] came to 1.2%.

Consider `C[S+]([O-])c1ccc2nc(N)sc2c1` (configuration not stated), for which the inhibition of growth at 20 µM in the assay with HeLa [1] worked out at 9.1%.

In the case of `c1ccc2oc(-c3ccc4ncsc4c3)nc2c1`, the half-inhibitory concentration (IC50) in the assay on HeLa [2] was 6 µM. Moreover, in the assay with HeLa [1], the inhibition of growth at 20 µM was determined as 49.2%. The inhibition of growth at 1 µM in the assay on HeLa [3] is 17.6%. For `COc1ccc(-c2nc3ccccc3s2)cc1`, in the assay on HeLa [1], the inhibition of growth at 20 µM came out at 0.1%. As to `Cc1nc(-c2nc3ccccc3s2)n[nH]1`, the inhibition of growth at 20 µM with HeLa [1] was 6.6%. The same measure, in the same setting: next, `Oc1ccccc1-c1nc2ccccc2s1`: 8.1%; `c1ccc(-c2nc3ccccc3s2)cc1` [2-PHENYLBENZO[D]THIAZOLE]: 2.6%. Turning to `Nc1ccc2nc(N)sc2c1`, the inhibition of growth at 20 µM in the assay on HeLa [1] was determined as 6.9%. On the same count and under the same terms, next, `Nc1nc2cccc(Cl)c2s1`: 5.3%. Turning to `Brc1ccc(-c2nc3ccccc3s2)cc1`, in the assay on HeLa [1], the inhibition of growth at 20 µM was determined as 5.5%.

Turning to `c1ccc(-c2nc3ccccc3[nH]2)nc1`, the inhibition of growth at 20 µM in the assay on HeLa [1] turned out to be 2.5%. For `COc1ccc2nc(N)sc2c1`, the inhibition of growth at 20 µM with HeLa [1] is -3.4%. Same read-out and setting: then `Cc1nc2cc(N)ccc2s1`, with 6.1%; and `Nc1ccc(-c2nc3ccccc3o2)cc1`, with 19.3%. Still for that read-out and setting: next, `FC(F)(F)c1ccc(-c2nc3ccccc3s2)nn1`: 9.7%; `N#Cc1ccc(-c2nc3ccccc3s2)cc1`: 10.8%; `Nc1ccc2oc(-c3ccccc3F)nc2c1`: 42.4%.

On to `Nc1ccc2nc(-c3ccccc3)oc2c1`, for which the inhibition of growth at 20 µM in the assay with HeLa [1] was -0.7%. As for `Nc1ccc(-c2nc3ccccc3[nH]2)c(N)c1`, the inhibition of growth at 20 µM in the assay on HeLa [1] stood at 0.2%. `Nc1ccc2oc(-c3cccnc3)nc2c1`: in the assay with HeLa [1], the inhibition of growth at 20 µM was determined as 1.3%. With `CC[n+]1ccccc1-c1nc2ccccc2s1`, the inhibition of growth at 20 µM with HeLa [1] came to 2.1%. Turning to `Nc1ccc2oc(-c3ccc(Cl)cc3Cl)nc2c1`, the inhibition of growth at 20 µM with HeLa [1] is 6%. Still for that read-out and setting: next, `Oc1c(Br)cc(Br)cc1-c1nc2ccccc2s1`: 4%; `O=C(Nc1nc2ccccc2s1)c1cccnc1Cl`: 5.5%; `c1cncc(-c2nc3ccccc3s2)c1`: 4.4%. Consider `Nc1ccc2sc(N)nc2c1`, for which the inhibition of growth at 20 µM in the assay with HeLa [1] stood at 9.6%. The same measure, in the same setting: then `Sc1nc2ccccc2s1` [2-MERCAPTOBENZOTHIAZOLE], with 7.9%; and `Nc1ccc2nn(-c3ccccc3)nc2c1`, with 53%; and `Nc1ccc(O)c(-n2nc3ccc(N)cc3n2)c1`, with 7.1%. For `Nc1ccc(-c2nc3ccccc3[nH]2)cc1`, in the assay on HeLa [1], the inhibition of growth at 20 µM was 1.9%. On to `Nc1cccc(-c2nc3ccccc3s2)c1`, for which the inhibition of growth at 20 µM with HeLa [1] came out at 1.7%.
